Series [1] relates to Botryotinia fuckeliana (Botrytis cinerea). Kind of series: Botryotinia fuckeliana (Botrytis cinerea) / liquid culture (gray mould). It counts as cell-based. Particulars: growth inhibition determined photometrically 3-4 days after application, vs untreated control, read-out: disease control.
For series [2], the system named is Glomerella lagenarium (Colletotrichum lagenarium). Kind of series: Glomerella lagenarium (Colletotrichum lagenarium) / liquid culture (anthracnose). Particulars: Colletotrichum orbiculare, growth inhibition measured photometrically 3-4 days after application, vs untreated control, read-out: disease control. It counts as cell-based.
For series [3], the system named is Magnaporthe grisea (Pyricularia oryzae). The series is described as follows: microbe, parasite or virus in culture. It counts as cell-based. Particulars: 72 h, read-out: control of Magnaporthe grisea.
The subject of series [4] is Fusarium culmorum. Kind of series: microbe, parasite or virus in culture. It counts as cell-based. Particulars: 72 h, read-out: disease control.
For series [5], the system named is Sclerotinia sclerotiorum. The series is described as follows: Sclerotinia sclerotiorum / liquid culture (cottony rot). Particulars: 72 h, read-out: control of Sclerotinia sclerotiorum.
Description: Sclerotinia sclerotiorum/Liquid Culture (Cottony Rot)
Mycelia fragments of a newly grown liquid culture of the fungus are directly mixed into nutrient broth (Vogels broth). After placing a (DMSO) solution of test compound into a microtiter plate (96-well format) the nutrient broth containing the fungal material is added. The test plates are incubated at 24° C. and the inhibition of growth is determined photometrically 3-4 days after application.
Series [6] deals with Mycosphaerella graminicola (Septoria tritici). Kind of series: Mycosphaerella graminicola (Septoria tritici) / liquid culture (Septoria blotch). The following applies: Zymoseptoria tritici, 96 h, growth inhibition determined photometrically 4-5 days after application, vs untreated control, read-out: disease control. It counts as cell-based.
Series [7] has as its system Monographella nivalis (Microdochium nivale). Kind of series: Monographella nivalis (Microdochium nivale) / liquid culture (foot rot cereals). It counts as cell-based. Particulars: 96 h, growth inhibition determined photometrically 4-5 days after application, vs untreated control, read-out: disease control.
The subject of series [8] is Gaeumannomyces graminis. Kind of series: Gaeumannomyces graminis / liquid culture (take-all of cereals). It counts as cell-based. The following applies: growth inhibition determined photometrically 4-5 days after application, vs untreated control, read-out: disease control.
For series [9], the system named is Pyrenophora teres. Kind of series: Pyrenophora teres / liquid culture (net blotch). It counts as cell-based. The following applies: growth inhibition determined photometrically 3-4 days after application, vs untreated control.
Series [10] has as its system Pyrenophora teres. Kind of series: Pyrenophora teres / barley / leaf disc preventative (net blotch). Particulars: 200 ppm, barley leaf segments cv. Hasso, inoculated 2 days after application, assessed 5-7 days after application. It counts as in vivo. On the procedure:
Pyrenophora teres/Barley/Leaf Disc Preventative (Net Blotch)
Barley leaf segments cv. Hasso are placed on agar in a multiwell plate (24-well format) and sprayed with the formulated test compound diluted in water. The leaf segmens are inoculated with a spore suspension of the fungus 2 days after application. The inoculated leaf segments are incubated at 20° C. and 65% rh under a light regime of 12 h light/12 h darkness in a climate cabinet and the activity of a compound is assessed as disease control compared to untreated when an appropriate level of disease damage appears in untreated check leaf segments (5-7 days after application).

The structures appear in SMILES notation.

In general, melting point refers to the temperature of the solid-liquid transition.

Regarding `Cc1cc2ncn(C3=NC(C)(C)C(C)(C)c4c(F)cccc43)c2cc1C` [E-30], the inhibition of growth at 200 ppm in [1], in series [2], in series [4], in series [6], in series [7] and in series [8] was no less than 80% throughout. Moreover, the inhibition of growth at 20 ppm in [3] and in series [5] was no less than 80% throughout.

As to `Cc1cccc2c1C(F)(F)C(C)(C)N=C2n1cnc2c(C)c(C)ccc21` [E-22], the inhibition of growth at 200 ppm in series [1], in [2], in [4], in series [6] and in [7] was no less than 80% in each case. Also, the inhibition of growth at 20 ppm in series [3], in series [5] and in series [9] was no less than 80% throughout.

With `Cc1cccc2c1ncn2C1=NC(C)(C)C(C)(C)c2ccccc21` [E-16], the inhibition of growth at 200 ppm in [1], in series [2], in [4], in series [7] and in series [8] was no less than 80% in each case. Further, the inhibition of growth at 20 ppm in series [3], in [5] and in [9] was no less than 80% each time. Besides, the “control of Pyrenophora teres” value in series [10] is reported as “at least 80%”.

As for `Cc1ccc2c(ncn2C2=NC(C)(C)Cc3cc(F)ccc32)c1C` [E-57], the melting point is 143 to 145 °C. Also, in series [1], the inhibition of growth at 200 ppm was no less than 80%. For the same compound, the inhibition of growth at 200 ppm in series [2] was no less than 80%. Also, in [3], the inhibition of growth at 20 ppm is no less than 80%. In addition, the inhibition of growth at 200 ppm in [4] is no less than 80%. Besides, the inhibition of growth at 20 ppm in [5] is no less than 80%. The inhibition of growth at 200 ppm in series [6] was no less than 80%. Moreover, in series [7], the inhibition of growth at 200 ppm was no less than 80%.

Consider `Cc1c(Cl)ccc2c1ncn2C1=NC(C)(C)C(F)(F)c2ccccc21` [E-33], for which the inhibition of growth at 200 ppm in series [1], in series [2], in series [4], in series [6], in series [7] and in [8] was no less than 80% each time. Besides, the inhibition of growth at 20 ppm in series [3] and in [5] was no less than 80% throughout.

As to `CC1(C)N=C(n2cnc3c(F)c(F)ccc32)c2cccc(F)c2C1(C)C` [E-50], the melting point lay in the range of 112 to 114 °C. The inhibition of growth at 200 ppm in series [1] is no less than 80%. The inhibition of growth at 200 ppm in series [2] is no less than 80%. In [3], the inhibition of growth at 20 ppm is no less than 80%. The inhibition of growth at 200 ppm in series [4] was no less than 80%. Further, the inhibition of growth at 200 ppm in series [6] was no less than 80%. Further, the inhibition of growth at 200 ppm in series [7] was no less than 80%.

Take `Cc1cccc2c1C(F)(F)C(C)(C)N=C2n1cnc2c(C)cccc21` [E-21]: the inhibition of growth at 200 ppm in series [1], in [2], in series [4], in series [6], in [7] and in series [8] was no less than 80% in each case. For the same compound, the inhibition of growth at 20 ppm in [3], in series [5] and in series [9] was no less than 80% in each case.

Take `Cc1ccc2c(ncn2C2=NC(C)(C)C(C)(C)c3c(F)cccc32)c1F` [E-60]: the inhibition of growth at 200 ppm in series [1], in series [2], in series [4], in series [6], in series [7] and in series [8] was no less than 80% in each case. Moreover, in [3], the inhibition of growth at 20 ppm is no less than 80%.

`Cc1c(F)ccc2c1ncn2C1=NC(C)(C)C(F)(F)c2ccccc21` [E-32]: the melting point was in the range of 118 to 121 °C. For the same compound, the inhibition of growth at 200 ppm in series [1] was no less than 80%. For the same compound, the inhibition of growth at 200 ppm in [2] is no less than 80%. In addition, the inhibition of growth at 20 ppm in series [3] is no less than 80%. In [4], the inhibition of growth at 200 ppm is no less than 80%. Besides, in series [5], the inhibition of growth at 20 ppm is no less than 80%. In addition, the inhibition of growth at 200 ppm in [6] was no less than 80%. Further, in series [7], the inhibition of growth at 200 ppm was no less than 80%. In addition, the inhibition of growth at 200 ppm in series [8] was no less than 80%.

`Cc1cccc2c1ncn2C1=NC(C)(C)C(=O)c2cc(Cl)ccc21` [E-34] displayed a melting point of 129 to 133 °C. Further, in series [1], the inhibition of growth at 200 ppm was no less than 80%. In [3], the inhibition of growth at 20 ppm is no less than 80%. For the same compound, the inhibition of growth at 200 ppm in [4] was no less than 80%. Besides, the inhibition of growth at 200 ppm in [6] is no less than 80%. The inhibition of growth at 200 ppm in series [7] is no less than 80%.

Regarding `Cc1ccc2c(ncn2C2=NC(C)(C)C(C)(C)c3c(F)cccc32)c1C` [E-18], the inhibition of growth at 200 ppm in series [1], in [2], in series [4], in series [6], in series [7] and in series [8] was no less than 80% each time. The inhibition of growth at 20 ppm in [3], in series [5] and in series [9] was no less than 80% throughout.

As to `Cc1cccc2c1ncn2C1=NC(C)(C)C(C)(C)c2c(F)cccc21` [E-1], the melting point lay within 45 to 46 °C. Further, the inhibition of growth at 200 ppm in series [1] was no less than 80%. For the same compound, in series [2], the inhibition of growth at 200 ppm is no less than 80%. Also, the inhibition of growth at 20 ppm in [3] is no less than 80%. The inhibition of growth at 200 ppm in series [4] was no less than 80%. Also, the inhibition of growth at 20 ppm in series [5] was no less than 80%. For the same compound, in series [9], the inhibition of growth at 20 ppm is no less than 80%. Moreover, the inhibition of growth at 200 ppm in series [6] is no less than 80%. In addition, the inhibition of growth at 200 ppm in series [7] was no less than 80%. In addition, in series [8], the inhibition of growth at 200 ppm was no less than 80%.

Values taken from patent US10273221B2, “Microbiocidal heterobicyclic derivatives” (Syngenta Participations AG, priority 2015, dated 2019).
